# From PMC8760490, “Discovery of novel furanylbenzamide inhibitors that target oncogenic tyrosine phosphatase SHP2 in leukemia cells” (The Journal of Biological Chemistry, 2021)
# Target: T1, full-length SHP2-E76K oncogenic mutant (Homo sapiens, UniProt Q06124, E76K)
# T1 construct: Recombinant human full-length SHP2 (1–594) WT and E76K mutants; made in house
# T1 sequence (Q06124 1-593 E76K): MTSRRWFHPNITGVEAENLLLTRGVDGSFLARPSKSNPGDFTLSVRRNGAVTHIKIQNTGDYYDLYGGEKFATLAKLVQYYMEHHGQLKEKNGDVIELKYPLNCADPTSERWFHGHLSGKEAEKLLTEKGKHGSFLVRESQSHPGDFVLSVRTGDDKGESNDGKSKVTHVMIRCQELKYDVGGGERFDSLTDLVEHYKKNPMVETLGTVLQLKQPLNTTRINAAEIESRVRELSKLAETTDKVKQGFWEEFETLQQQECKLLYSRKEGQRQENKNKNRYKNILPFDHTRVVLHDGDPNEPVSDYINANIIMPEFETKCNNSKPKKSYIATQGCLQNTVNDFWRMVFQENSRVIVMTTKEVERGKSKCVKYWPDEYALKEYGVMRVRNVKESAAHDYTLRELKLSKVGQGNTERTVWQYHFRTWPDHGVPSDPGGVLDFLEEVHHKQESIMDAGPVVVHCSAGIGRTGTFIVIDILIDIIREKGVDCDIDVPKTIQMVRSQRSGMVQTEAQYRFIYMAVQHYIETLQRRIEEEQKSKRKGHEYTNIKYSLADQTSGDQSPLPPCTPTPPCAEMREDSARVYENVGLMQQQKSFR
# Test: DiFMUP fluorescence phosphatase inhibition assay, SHP2-E76K
# Type: biochemical
# Details: DiFMUP at Km (20 μM), 10-point dose–response, pH 6.0
# Excerpt: To test the synthesized compounds for their potential to inhibit SHP2 activity, a fluorescence intensity-based assay using 6,8-difluoro-4-methylumbelliferyl phosphate (DiFMUP) as the substrate was adapted for three recombinant SHP2 constructs: (1) the SHP2 catalytic domain (SHP2cat; residues 248–527), (2) the full-length SHP2-E76K oncogenic mutant, and (3) the full-length SHP2 WT (SHP2-WT). The recombinant SHP2 proteins were expressed and purified as described previously ([36]). A dually phosphorylated peptide derived from the insulin receptor substrate 1 (IRS-1) served as a surrogate binding protein and was used to activate SHP2-WT ([30], [36]). […] Michaelis–Menten experiments to determine the DiFMUP Michaelis–Menten constant (Km) for each SHP2 construct were performed as described previously ([36]) and yielded the following values: SHP2-WT, Km = 60 μM; SHP2-E76K, Km = 20 μM; and SHP2cat, Km = 20 μM. Relative maximum rates (Vmax) of the DiFMUP reactions expressed as relative fluorescence units per minute (RFU/min) were as follows: SHP2-WT, Vmax = 871 RFU/min; SHP2-E76K, Vmax = 2730 RFU/min; and SHP2cat, Vmax = 2912 RFU/min. IC50 values for each compound were determined from initial rates in 10-point dose–response assays using DiFMUP at a concentration corresponding to its Km value for the respective SHP2 construct. […] Replacements for the benzothiophenone were explored using analog #10.
# Recombinant human full-length SHP2 (1–594) WT and E76K mutants, as well as the SHP2cat (248–527), were expressed and purified as described before ([36], [41]). Recombinant human PTP1B (1–300) and the codon-optimized STEP (280–566) catalytic domains were cloned into PET-15b and expressed as N-His-tagged fusion proteins. For expression, transformed BL21(DE3) cells were grown and induced similar as described for SHP2. Collected cells were resuspended in lysis buffer (25 mM Tris, pH 7.5, 300 mM NaCl, 50 mM imidazole, and 10% glycerol) with 100 mg/l RNaseA and were lysed with two passages using a microfluidizer. The lysate was clarified by centrifugation at 15,000g for 50 min and applied to nickel–nitrilotriacetic acid resin. The column resin was washed, and the PTP1B or STEP protein was eluted in lysis buffer at 300 mM imidazole. The PTP1B or STEP protein was further purified by S75 size-exclusion chromatography in 50 mM Tris, pH 7.5, 50 mM NaCl. The eluted peak fractions were supplemented with tris(2-carboxyethyl)phosphine to 10 mM, concentrated by ultrafiltration, and stored at −80 °C. The purified yield of PTP1B was 33 mg/l cell culture; the yield of STEP was 16 mg/l cell culture.
# SHP2 inhibitors were tested at RT in a 384-well plate format standard phosphatase fluorescence intensity assay using DiFMUP (Invitrogen/Thermo Fisher Scientific) as a substrate and a total reaction volume of 25 μl. SHP2 inhibitors or vehicle (DMSO) were spotted in triplicate into a black Greiner FLUOTRAC 200 384-well microplate (catalog no.: 781076; Greiner) for a 10-point dose–response assay using an Echo 555 Liquid Handler (Labcyte, Inc). PTP working solutions were prepared at a 0.625 nM concentration (for a final concentration of 0.5 nM) in buffer containing 50 mM Bis–Tris, pH 6.0, 50 mM NaCl, 5 mM DTT, and 0.01% Tween-20. Prior to the assay, a dually phosphorylated IRS-1 peptide (625 nM [500 nM final] ([30])) was added to full-length WT SHP2 working solutions and incubated for 20 min. DiFMUP working solutions at 5× final concentration were prepared in 50 mM Bis–Tris, pH 6.0, 50 mM NaCl, and 0.01% Tween-20. About 20 μl of PTP working solution was dispensed into the microplate and incubated with inhibitor for 20 min at RT. […] The reaction was initiated by addition of 5 μl DiFMUP working solutions. Fluorescence intensity was measured in kinetic mode (every minute for 7 or 10 min) using a Tecan Spark Multimode Microplate Reader (Tecan) with an excitation wavelength of 360 nm and an emission wavelength of 460 nm. […]
row,Compound,IC50
1,"Nc1ccc(NC(=O)c2cc(-c3ccc(/C=C4\Sc5ccccc5C4=O)o3)ccc2O)cc1 [SBI-2130, (Z)-N-(4-Aminophenyl)-2-hydroxy-5-(5-((3-oxobenzo[b]thiophen-2(3H)-ylidene)methyl)furan-2-yl)benzamide]",480 nM
2,"O=C(Nc1ccccc1)c1cc(-c2ccc(/C=C3\Sc4ccccc4C3=O)o2)ccc1O [SBI-4668, (Z)-2-Hydroxy-5-(5-((3-oxobenzo[b]thiophen-2(3H)-ylidene)methyl)furan-2-yl)-N-phenylbenzamide]",1800 nM
3,"O=C1/C(=C/c2ccc(-c3ccc(O)c(-c4nn[nH]n4)c3)o2)Sc2ccccc21 [SBI-3405, (Z)-2-((5-(4-Hydroxy-3-(2H-tetrazol-5-yl)phenyl)furan-2-yl)methylene)benzo[b]thiophen-3(2H)-one]",4100 nM

# Next, values leading:
row,IC50,Compound
1,4200 nM,"N#Cc1cc(-c2ccc(/C=C3\Sc4ccccc4C3=O)o2)ccc1O [SBI-3404, (Z)-2-Hydroxy-5-(5-((3-oxobenzo[b]thiophen-2(3H)-ylidene)methyl)furan-2-yl)benzonitrile]"
2,2300 nM,"O=C1CCCC1=Cc1ccc(-c2ccc(O)c(C(=O)Nc3ccccc3)c2)o1 [SBI-3192, 2-Hydroxy-5-(5-((2-oxocyclopentylidene)methyl)furan-2-yl)-N-phenylbenzamide]"
